≈ marks a conversion by molar mass, not a printed value. Where two headings read alike, the source gives them in different places.
Legend:
Bacillus anthracis = assay: microbe, parasite or virus in culture; type: cell-based; conditions: read-out: Minimal inhibitory concentration
[1] = system: Pseudomonas aeruginosa GN315; assay: antibacterial spectrum, minimal inhibitory concentration; type: cell-based
Escherichia coli R-101 = assay: as above; type: cell-based
Bacillus cereus = assay: as above; type: cell-based
[2] = system: Pseudomonas aeruginosa No. 12; assay: as above; type: cell-based
[3] = system: Pseudomonas aeruginosa K-11; assay: as above; type: cell-based
[4] = system: Pseudomonas aeruginosa A3; assay: as above; type: cell-based
[5] = system: Escherichia coli K-12 ML1410; assay: as above; type: cell-based; conditions: K12ML1410
[6] = system: Klebsiella pneumoniae PCI 602; assay: as above; type: cell-based
Streptococcus faecalis = assay: as above; type: cell-based; conditions: Enterococcus faecalis
[7] = system: Escherichia coli JR88/W677; assay: as above; type: cell-based; conditions: resistance mechanism AAC(3)I
[8] = system: Pseudomonas aeruginosa TI-13; assay: as above; type: cell-based
From the text: | Resistance mechanism: ^a APH(3')I,

[9] = system: Staphylococcus aureus 209P JC-1; assay: as above; type: cell-based
Proteus vulgaris OX-19 = assay: as above; type: cell-based
Serratia marcescens = assay: as above; type: cell-based; conditions: read-out: Minimal inhibitory concentration
Escherichia coli R-81 = assay: as above; conditions: R81, read-out: Minimal inhibitory concentration
[10] = system: Proteus inconstans GN1554; assay: as above; type: cell-based; conditions: Providencia alcalifaciens
[11] = system: Pseudomonas aeruginosa TK-157; assay: as above; type: cell-based
[12] = system: Bacillus subtilis ATCC 6633; assay: as above; type: cell-based; conditions: ATCC6633
Escherichia coli R-176 = assay: as above; type: cell-based; conditions: R176, resistance mechanism AAC(3)II
[13] = system: Escherichia coli NIHJ JC-2; assay: as above; type: cell-based
Escherichia coli R-82 = assay: as above; type: cell-based; conditions: R82, resistance mechanism APH(3')II
[14] = system: Pseudomonas aeruginosa No. 99; assay: as above; type: cell-based
[15] = Pseudomonas aeruginosa GN315, resistance mechanism AAC(6')IV, read-out: Minimal inhibitory concentration
[16] = Escherichia coli, R101, read-out: Minimal inhibitory concentration
[17] = K11, Pseudomonas aeruginosa K-11, read-out: Minimal inhibitory concentration
[18] = Pseudomonas aeruginosa A3, read-out: Minimal inhibitory concentration
[19] = PCI602, Klebsiella pneumoniae PCI 602, read-out: Minimal inhibitory concentration
[20] = TI13, Pseudomonas aeruginosa TI-13, resistance mechanism APH(3')I, read-out: Minimal inhibitory concentration
[21] = OX19, Proteus vulgaris OX-19, read-out: Minimal inhibitory concentration
[22] = Proteus inconstans GN1554, resistance mechanism AAC(2'), read-out: Minimal inhibitory concentration
[23] = TK157, Pseudomonas aeruginosa TK-157, resistance mechanism APH(3')II, read-out: Minimal inhibitory concentration
[24] = Escherichia coli, NIHJJC2, read-out: Minimal inhibitory concentration
[25] = Pseudomonas aeruginosa No. 99, resistance mechanism AAC(3)I, read-out: Minimal inhibitory concentration
[26] = Pseudomonas aeruginosa, A3, read-out: Minimal inhibitory concentration
[27] = GN1554, read-out: Minimal inhibitory concentration
[28] = NIHJJC2, Escherichia coli NIHJ JC-2, read-out: Minimal inhibitory concentration
[29] = Pseudomonas aeruginosa, GN315, read-out: Minimal inhibitory concentration
[30] = R101, Escherichia coli R-101, resistance mechanism AAD(2"), read-out: Minimal inhibitory concentration
[31] = Klebsiella pneumoniae, PCI602, read-out: Minimal inhibitory concentration
[32] = Pseudomonas aeruginosa, TK157, read-out: Minimal inhibitory concentration
[33] = Pseudomonas aeruginosa, K11, read-out: Minimal inhibitory concentration
[34] = Pseudomonas aeruginosa, TI13, read-out: Minimal inhibitory concentration
[35] = Proteus vulgaris, OX19, read-out: Minimal inhibitory concentration
[36] = Pseudomonas aeruginosa, NO.99, read-out: Minimal inhibitory concentration

SMILES	MIC (Bacillus anthracis)	MIC (Escherichia coli R-101; [16])	MIC (Bacillus cereus)	MIC [2]	MIC [3, 17]	MIC [5]	MIC [6, 19]	MIC (Streptococcus faecalis)	MIC [7]	MIC [9]	MIC (Proteus vulgaris OX-19; [21])	MIC (Serratia marcescens)	MIC (Escherichia coli R-81)	MIC [11, 23]	MIC [12]	MIC (Escherichia coli R-176)	MIC (Escherichia coli R-82)	MIC [14, 25]	MIC [4, 26]	MIC [10, 27]	further results
COC1CC(N)C(OC2OC(C(C)N)CCC2N)C(O)C1N(C)C(=O)CN (stereo not drawn) [KA-6606 I, reference compound]	0.2 µg/mL (≈ 0.513 µM)	3.13 µg/mL (≈ 8.04 µM)	1.56 µg/mL (≈ 4.01 µM)	0.39 µg/mL (≈ 1 µM)	12.5 µg/mL (≈ 32.1 µM)	3.13 µg/mL (≈ 8.04 µM)	1.56 µg/mL (≈ 4.01 µM)	25 µg/mL (≈ 64.2 µM)	> 100 µg/mL	0.39 µg/mL (≈ 1 µM)	1.56 µg/mL (≈ 4.01 µM)	3.13 µg/mL (≈ 8.04 µM)	3.13 µg/mL (≈ 8.04 µM)	6.25 µg/mL (≈ 16 µM)	0.2 µg/mL (≈ 0.513 µM)	3.13 µg/mL (≈ 8.04 µM)	3.13 µg/mL (≈ 8.04 µM)	> 100 µg/mL	–	–	MIC [1, 15]: 12.5 µg/mL (≈ 32.1 µM); MIC [4, 18]: 6.25 µg/mL (≈ 16 µM); MIC [8, 20]: 6.25 µg/mL (≈ 16 µM); MIC [10, 22]: 6.25 µg/mL (≈ 16 µM); MIC [13, 24]: 3.13 µg/mL (≈ 8.04 µM)
CC(N)C1CCC(N)C(OC2C(N)CC(OCC(O)CO)C(N(C)C(=O)CN)C2O)O1 (stereo not drawn) [C, 5-de-O-methyl-5-O-(2,3-dihydroxypropyl)-KA-6606 I]	≤ 0.1 µg/mL	6.25 µg/mL (≈ 13.9 µM)	3.13 µg/mL (≈ 6.96 µM)	1.56 µg/mL (≈ 3.47 µM)	12.5 µg/mL (≈ 27.8 µM)	6.25 µg/mL (≈ 13.9 µM)	0.78 µg/mL (≈ 1.74 µM)	100 µg/mL (≈ 222 µM)	6.25 µg/mL (≈ 13.9 µM)	0.39 µg/mL (≈ 0.868 µM)	3.13 µg/mL (≈ 6.96 µM)	3.13 µg/mL (≈ 6.96 µM)	6.25 µg/mL (≈ 13.9 µM)	12.5 µg/mL (≈ 27.8 µM)	0.2 µg/mL (≈ 0.445 µM)	6.25 µg/mL (≈ 13.9 µM)	6.25 µg/mL (≈ 13.9 µM)	25 µg/mL (≈ 55.6 µM)	6.25 µg/mL (≈ 13.9 µM)	6.25 µg/mL (≈ 13.9 µM)	MIC [1, 15]: 12.5 µg/mL (≈ 27.8 µM); MIC [8, 20]: 12.5 µg/mL (≈ 27.8 µM); MIC [13, 28]: 3.13 µg/mL (≈ 6.96 µM)
CC(N)C1CCC(N)C(OC2C(N)CC(O[C@H]3O[C@H](CO)[C@@H](O)[C@H](N)[C@H]3O)C(N(C)C(=O)CN)C2O)O1 (stereo partly drawn) [E, 5-O-(3-amino-3-deoxy-α-D-glucopyranosyl)-5-de-O-methyl-KA-6606 I]	0.2 µg/mL (≈ 0.373 µM)	–	0.78 µg/mL (≈ 1.45 µM)	0.39 µg/mL (≈ 0.727 µM)	3.13 µg/mL (≈ 5.83 µM)	6.25 µg/mL (≈ 11.6 µM)	–	50 µg/mL (≈ 93.2 µM)	1.56 µg/mL (≈ 2.91 µM)	0.39 µg/mL (≈ 0.727 µM)	3.13 µg/mL (≈ 5.83 µM)	1.56 µg/mL (≈ 2.91 µM)	6.25 µg/mL (≈ 11.6 µM)	–	0.2 µg/mL (≈ 0.373 µM)	6.25 µg/mL (≈ 11.6 µM)	6.25 µg/mL (≈ 11.6 µM)	12.5 µg/mL (≈ 23.3 µM)	6.25 µg/mL (≈ 11.6 µM)	6.25 µg/mL (≈ 11.6 µM)	MIC [1, 29]: 6.25 µg/mL (≈ 11.6 µM); MIC (Escherichia coli R-101; [30]): 3.13 µg/mL (≈ 5.83 µM); MIC [6, 31]: 1.56 µg/mL (≈ 2.91 µM); MIC [8, 20]: 3.13 µg/mL (≈ 5.83 µM); MIC [11, 32]: 1.56 µg/mL (≈ 2.91 µM); MIC [13, 28]: 3.13 µg/mL (≈ 5.83 µM)
CC(N)C1CCC(N)C(OC2C(N)CC(OCC(O)CN)C(N(C)C(=O)CN)C2O)O1 (stereo not drawn) [A, 5-O-(3-amino-2-hydroxypropyl)-5-de-O-methyl-KA-6606 I]	≤ 0.1 µg/mL	3.13 µg/mL (≈ 6.98 µM)	0.78 µg/mL (≈ 1.74 µM)	0.39 µg/mL (≈ 0.869 µM)	–	3.13 µg/mL (≈ 6.98 µM)	1.56 µg/mL (≈ 3.48 µM)	50 µg/mL (≈ 111 µM)	6.25 µg/mL (≈ 13.9 µM)	0.39 µg/mL (≈ 0.869 µM)	–	1.56 µg/mL (≈ 3.48 µM)	3.13 µg/mL (≈ 6.98 µM)	1.56 µg/mL (≈ 3.48 µM)	0.2 µg/mL (≈ 0.446 µM)	6.25 µg/mL (≈ 13.9 µM)	3.13 µg/mL (≈ 6.98 µM)	–	–	6.25 µg/mL (≈ 13.9 µM)	MIC [1, 29]: 3.13 µg/mL (≈ 6.98 µM); MIC [3, 33]: 3.13 µg/mL (≈ 6.98 µM); MIC [4, 18]: 1.56 µg/mL (≈ 3.48 µM); MIC [8, 34]: 3.13 µg/mL (≈ 6.98 µM); MIC (Proteus vulgaris OX-19; [35]): 3.13 µg/mL (≈ 6.98 µM); MIC [13, 24]: 3.13 µg/mL (≈ 6.98 µM); MIC [14, 36]: 6.25 µg/mL (≈ 13.9 µM)
CC(N)C1CCC(N)C(OC2C(N)CC(O[C@@H]3O[C@H](CO)[C@@H](O)[C@H](O)[C@H]3O)C(N(C)C(=O)CN)C2O)O1 (stereo partly drawn) [D, 5-de-O-methyl-5-O-(β-D-glucopyranosyl)-KA-6606 I]	0.2 µg/mL (≈ 0.372 µM)	–	6.25 µg/mL (≈ 11.6 µM)	0.78 µg/mL (≈ 1.45 µM)	25 µg/mL (≈ 46.5 µM)	12.5 µg/mL (≈ 23.3 µM)	–	> 100 µg/mL	3.13 µg/mL (≈ 5.82 µM)	0.78 µg/mL (≈ 1.45 µM)	6.25 µg/mL (≈ 11.6 µM)	3.13 µg/mL (≈ 5.82 µM)	12.5 µg/mL (≈ 23.3 µM)	6.25 µg/mL (≈ 11.6 µM)	0.39 µg/mL (≈ 0.725 µM)	3.13 µg/mL (≈ 5.82 µM)	12.5 µg/mL (≈ 23.3 µM)	25 µg/mL (≈ 46.5 µM)	12.5 µg/mL (≈ 23.3 µM)	–	MIC [1, 15]: 25 µg/mL (≈ 46.5 µM); MIC (Escherichia coli R-101; [30]): 6.25 µg/mL (≈ 11.6 µM); MIC [6, 31]: 3.13 µg/mL (≈ 5.82 µM); MIC [8, 34]: 12.5 µg/mL (≈ 23.3 µM); MIC [10, 22]: 25 µg/mL (≈ 46.5 µM); MIC [13, 28]: 6.25 µg/mL (≈ 11.6 µM)
CC(N)C1CCC(N)C(OC2C(N)CC(OCC(O)CCN)C(N(C)C(=O)CN)C2O)O1 (stereo not drawn) [B, 5-O-(4-amino-2-hydroxybutyl)-5-de-O-methyl-KA-6606 I]	≤ 0.1 µg/mL	3.13 µg/mL (≈ 6.77 µM)	1.56 µg/mL (≈ 3.37 µM)	0.39 µg/mL (≈ 0.843 µM)	–	3.13 µg/mL (≈ 6.77 µM)	1.56 µg/mL (≈ 3.37 µM)	50 µg/mL (≈ 108 µM)	3.13 µg/mL (≈ 6.77 µM)	0.39 µg/mL (≈ 0.843 µM)	–	1.56 µg/mL (≈ 3.37 µM)	3.13 µg/mL (≈ 6.77 µM)	–	≤ 0.1 µg/mL	6.25 µg/mL (≈ 13.5 µM)	3.13 µg/mL (≈ 6.77 µM)	–	3.13 µg/mL (≈ 6.77 µM)	6.25 µg/mL (≈ 13.5 µM)	MIC [1, 29]: 6.25 µg/mL (≈ 13.5 µM); MIC [3, 33]: 6.25 µg/mL (≈ 13.5 µM); MIC [8, 34]: 3.13 µg/mL (≈ 6.77 µM); MIC (Proteus vulgaris OX-19; [35]): 3.13 µg/mL (≈ 6.77 µM); MIC [11, 32]: 3.13 µg/mL (≈ 6.77 µM); MIC [13, 24]: 3.13 µg/mL (≈ 6.77 µM); MIC [14, 36]: 6.25 µg/mL (≈ 13.5 µM)

From US4438107A, “Aminoglycosides and use thereof” (Kowa Company, Ltd., priority 1981, dated 1984)
